The source of these data is ChEMBL document CHEMBL4219138, “Discovery of N-aryl-N'-pyrimidin-4-yl ureas as irreversible L858R/T790M mutant selective epidermal growth factor receptor inhibitors” (Bioorg Med Chem Lett, 2018).

Assay [1] concerns NCI-H1975. In words: Antiproliferative activity against human NCI-H1975 cells harboring EGFR L858R/T790M mutant after 72 hrs by MTT assay. The class given is functional, cell-based. Conditions: NCI-H1975, 72 h.
Assay [2] concerns A-431. In words: Antiproliferative activity against human A431 cells harboring wild-type EGFR after 72 hrs by MTT assay. It is filed as functional, cell-based. The following applies: A-431, 72 h.
Assay [3] addresses T1, Epidermal growth factor receptor (Homo sapiens, UniProt P00533). In words: Inhibition of wild-type EGFR phosphorylation in human A431 cells preincubated for 1 hr followed by EGF stimulation measured after 45 mins by ELISA. It is filed as cell-based.
Assay [4] concerns the target T2, Epidermal growth factor receptor (Homo sapiens, UniProt P00533, L858R/T790M). Put plainly: Inhibition of recombinant human GST-tagged EGFR L858R/T790M mutant cytoplasmic domain (668 to 1210 residues) expressed in baculovirus expression system using tyrosine04 peptide as substrate after 60 mins in presence of ATP by Z-LYTE assay.
For assay [5], the target named is T1, Epidermal growth factor receptor. In words: Inhibition of recombinant human GST-tagged wild-type EGFR cytoplasmic domain (668 to 1210 residues) expressed in baculovirus expression system using tyrosine04 peptide as substrate after 60 mins in presence of ATP by Z-LYTE assay.
For assay [6], the target named is T2, Epidermal growth factor receptor. Put plainly: Inhibition of EGFR L858R/T790M mutant phosphorylation in human NCI-H1975 cells after 1 hr by ELISA. The class given is cell-based.
Assay [7] in a line: Selectivity ratio of IC50 for human A431 cells harboring wild-type EGFR to IC50 for human NCI-H1975 cells harboring EGFR L858R/T790M mutant. It is filed as functional.

T2 sequence (P00533 25-1210 T790M/L858R limits assumed): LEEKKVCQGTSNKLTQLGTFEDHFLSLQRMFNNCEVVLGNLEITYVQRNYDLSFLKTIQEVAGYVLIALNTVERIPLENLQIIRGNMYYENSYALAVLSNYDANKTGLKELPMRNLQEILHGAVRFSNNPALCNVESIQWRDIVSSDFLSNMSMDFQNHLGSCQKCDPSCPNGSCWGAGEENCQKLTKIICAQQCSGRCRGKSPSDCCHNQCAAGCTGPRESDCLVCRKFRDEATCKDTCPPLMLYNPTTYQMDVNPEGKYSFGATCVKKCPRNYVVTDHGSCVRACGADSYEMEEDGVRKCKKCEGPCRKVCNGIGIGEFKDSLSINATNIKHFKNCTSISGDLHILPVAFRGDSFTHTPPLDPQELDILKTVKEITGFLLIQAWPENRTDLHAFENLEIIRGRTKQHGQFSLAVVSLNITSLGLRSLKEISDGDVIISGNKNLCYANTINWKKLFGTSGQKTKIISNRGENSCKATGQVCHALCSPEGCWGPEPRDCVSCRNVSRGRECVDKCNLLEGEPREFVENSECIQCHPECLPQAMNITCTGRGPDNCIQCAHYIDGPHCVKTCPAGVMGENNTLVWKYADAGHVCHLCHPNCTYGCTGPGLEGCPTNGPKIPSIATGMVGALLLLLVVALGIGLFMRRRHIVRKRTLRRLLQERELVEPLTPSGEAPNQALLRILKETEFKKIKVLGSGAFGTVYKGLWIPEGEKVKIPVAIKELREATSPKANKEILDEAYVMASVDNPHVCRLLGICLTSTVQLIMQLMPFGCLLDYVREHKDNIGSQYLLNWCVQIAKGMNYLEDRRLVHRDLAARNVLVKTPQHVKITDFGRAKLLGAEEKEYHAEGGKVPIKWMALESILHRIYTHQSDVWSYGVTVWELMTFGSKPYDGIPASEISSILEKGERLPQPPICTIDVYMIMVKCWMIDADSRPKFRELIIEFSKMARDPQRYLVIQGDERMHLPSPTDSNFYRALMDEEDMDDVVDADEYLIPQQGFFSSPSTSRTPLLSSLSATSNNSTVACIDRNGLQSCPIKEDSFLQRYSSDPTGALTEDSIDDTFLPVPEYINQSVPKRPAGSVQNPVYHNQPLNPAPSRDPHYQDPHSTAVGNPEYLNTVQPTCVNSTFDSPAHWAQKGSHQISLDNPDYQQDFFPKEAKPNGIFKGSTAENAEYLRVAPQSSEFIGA
T1 sequence (P00533 whole entry, the tested form may be a part): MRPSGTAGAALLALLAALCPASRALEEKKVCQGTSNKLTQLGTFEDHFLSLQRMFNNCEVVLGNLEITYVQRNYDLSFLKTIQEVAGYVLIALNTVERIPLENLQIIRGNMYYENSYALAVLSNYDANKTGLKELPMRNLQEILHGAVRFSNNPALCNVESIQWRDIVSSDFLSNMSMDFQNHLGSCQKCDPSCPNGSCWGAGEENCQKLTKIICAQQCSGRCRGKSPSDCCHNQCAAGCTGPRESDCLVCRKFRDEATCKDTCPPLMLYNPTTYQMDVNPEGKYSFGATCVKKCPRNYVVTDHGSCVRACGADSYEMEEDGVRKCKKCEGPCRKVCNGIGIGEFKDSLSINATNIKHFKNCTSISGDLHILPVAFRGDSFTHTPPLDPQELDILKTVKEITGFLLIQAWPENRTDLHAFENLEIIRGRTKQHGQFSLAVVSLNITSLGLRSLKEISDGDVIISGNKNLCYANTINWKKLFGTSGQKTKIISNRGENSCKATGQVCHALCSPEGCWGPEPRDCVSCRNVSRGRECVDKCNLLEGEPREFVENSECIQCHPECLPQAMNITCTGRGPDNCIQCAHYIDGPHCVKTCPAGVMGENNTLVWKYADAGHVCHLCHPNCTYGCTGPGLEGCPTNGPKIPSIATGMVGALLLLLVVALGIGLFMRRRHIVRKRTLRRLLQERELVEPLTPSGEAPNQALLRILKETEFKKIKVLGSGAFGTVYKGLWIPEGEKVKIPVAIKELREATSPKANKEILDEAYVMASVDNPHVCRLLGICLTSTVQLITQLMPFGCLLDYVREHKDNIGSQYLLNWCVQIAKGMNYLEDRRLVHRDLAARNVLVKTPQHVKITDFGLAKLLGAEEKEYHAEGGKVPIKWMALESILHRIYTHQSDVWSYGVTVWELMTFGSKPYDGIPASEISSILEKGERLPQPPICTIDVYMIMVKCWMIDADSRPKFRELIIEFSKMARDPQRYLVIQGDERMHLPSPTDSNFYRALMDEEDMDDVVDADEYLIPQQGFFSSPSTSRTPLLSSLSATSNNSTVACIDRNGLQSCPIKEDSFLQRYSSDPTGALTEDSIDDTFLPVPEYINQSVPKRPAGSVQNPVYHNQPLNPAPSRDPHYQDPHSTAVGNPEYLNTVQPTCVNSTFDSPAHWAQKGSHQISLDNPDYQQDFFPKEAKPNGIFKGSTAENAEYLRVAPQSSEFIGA

As to `C=CC(=O)Nc1cccc(Oc2nc(Nc3ccc(N4CCN(C)CC4)cc3OC)ncc2Cl)c1`, the IC50 in assay [1] came out at 27 nM; in assay [2], 1240 nM.
For the molecule `C=CC(=O)Nc1cccc(Oc2nc(Nc3ccc(N4CCN(C(C)=O)CC4)cc3OC)ncc2C(F)(F)F)c1`, the IC50 came out at 1030 nM in assay [3]; 7 nM in assay [4]; 117 nM in assay [1]; 67 nM in assay [5]; 2530 nM in assay [2]; 132 nM in assay [6].
Turning to `C=CC(=O)Nc1cccc(NC(=O)N(C)c2ccnc(Nc3ccc(N4CCN(C)CC4)cc3OC)n2)c1`, the concentration for half-maximal inhibition (IC50) in assay [4] and in assay [5] was above 1000 nM throughout.
For `C=CC(=O)Nc1cccc(NC(=O)Nc2ccnc(Nc3ccc(N4CCC(N5CCN(C)CC5)CC4)cc3OC)n2)c1`, the IC50 in assay [3] was found to be 2340 nM; in assay [4], 5 nM; in assay [1], 106 nM; in assay [5], 80 nM; in assay [6], 105 nM.
Regarding `C=CC(=O)Nc1cccc(NC(=O)Nc2ccnc(Nc3ccc(N4CCC(N(C)C)CC4)cc3OC)n2)c1`, the IC50 in assay [3] worked out at 1540 nM; in assay [4] it was 2 nM; in assay [1], 107 nM; in assay [5], 45 nM; in assay [2], 3380 nM; in assay [6], 82 nM.
In the case of `C=CC(=O)Nc1cccc(NC(=O)Nc2ccnc(Nc3ccc(N(C)CCN(C)C)cc3OC)n2)c1`, the IC50 stood at 1700 nM in assay [3]; 19 nM in assay [4]; 502 nM in assay [1]; 49 nM in assay [5]; 3400 nM in assay [2]; 430 nM in assay [6].
As to `C=CC(=O)Nc1cccc(NC(=O)Nc2ccnc(Nc3ccc(N(C)C)cc3)n2)c1`, the figures for the 50% inhibitory concentration (IC50) in assay [4] and in assay [5] were 170 nM and 462 nM, respectively.
Regarding `C=CC(=O)Nc1cccc(NC(=O)Nc2ccnc(Nc3ccc(C4CCN(C)CC4)cc3)n2)c1`, the IC50 was 510 nM in assay [4] and above 1000 nM in assay [5].
On to `C=CC(=O)Nc1cccc(NC(=O)Nc2ccnc(Nc3ccc(N4CCC(N5CCOCC5)CC4)cc3OC)n2)c1`, for which the “Ratio IC50” value in assay [7] is above 270. The IC50 in assay [3] is 6460 nM; in assay [4], 4 nM; in assay [1] it was 37 nM; in assay [5] it was 86 nM; in assay [2], above 10000 nM; in assay [6], 41 nM.
In the case of `C=CC(=O)Nc1cccc(NC(=O)Nc2ccnc(Nc3ccc(C(=O)N4CCN(C)CC4)cc3OC)n2)c1`, the IC50 in assay [4] turned out to be 215 nM; in assay [5], 972 nM.
The matching figures for `C=CC(=O)Nc1cccc(NC(=O)Nc2nc(Nc3ccc(N4CCC(N5CCOCC5)CC4)cc3OC)ncc2C(F)(F)F)c1`: 270 nM and above 1000 nM.
Regarding `C=CC(=O)Nc1cccc(NC(=O)Nc2ccnc(Nc3ccc(C4CCN(C)CC4)cc3OC)n2)c1`, the IC50 in assay [3] was 5000 nM; in assay [4], 28 nM; in assay [1], 75 nM; in assay [5], 273 nM; in assay [2], above 10000 nM; in assay [6] it was 130 nM.
As to `C=CC(=O)Nc1cccc(NC(=O)Nc2nc(Nc3ccc(N4CCC(N5CCOCC5)CC4)cc3OC)ncc2Cl)c1`, the half-maximal inhibitory concentration (IC50) in assay [3] amounted to 2210 nM; in assay [4] it was 37 nM; in assay [1] it was 199 nM; in assay [5], 641 nM; in assay [2], 2590 nM; in assay [6] it was 131 nM.
For the molecule `C=CC(=O)Nc1cccc(NC(=O)C(C)(C)c2ccnc(Nc3ccc(N4CCN(C)CC4)cc3OC)n2)c1`, the IC50 in assay [4] and in assay [5] was above 1000 nM throughout.
For the molecule `C=CC(=O)Nc1cccc(NC(=O)Nc2ccnc(Nc3ccc(N4CCOCC4)cc3OC)n2)c1`, the IC50 was above 10000 nM in assay [3]; 15 nM in assay [4]; 173 nM in assay [1]; 225 nM in assay [5]; 218 nM in assay [6].
`C=CC(=O)Nc1cccc(NC(=O)Nc2ccnc(Nc3ccc(N4CCN(C)CC4)cc3)n2)c1`: the IC50 in assay [4] amounted to 48 nM; in assay [1] it was 1930 nM; in assay [5] it was 143 nM; in assay [6], 3150 nM.
Consider `C=CC(=O)Nc1cccc(NC(=O)Nc2ccnc(Nc3ccc(N4CCOCC4)cc3)n2)c1`, for which the IC50 was above 10000 nM in assay [3]; 87 nM in assay [4]; 7520 nM in assay [1]; 644 nM in assay [5]; above 10000 nM in assay [2]; above 10000 nM in assay [6].
For `C=CC(=O)Nc1cccc(NC(=O)Nc2ccnc(Nc3ccccc3OC)n2)c1`, the IC50 in assay [4] was 192 nM; in assay [5], above 1000 nM.
For `C=CC(=O)Nc1cccc(NC(=O)Nc2ccnc(Nc3ccc(N4CCN(CCF)CC4)cc3OC)n2)c1`, the IC50 in assay [3] is above 10000 nM; in assay [4], 22 nM; in assay [1], 519 nM; in assay [5], 158 nM; in assay [6] it was 511 nM.
Turning to `C=CC(=O)Nc1cccc(NC(=O)Nc2ccnc(Nc3ccc(OC)cc3OC)n2)c1`, the IC50 came out at 58 nM in assay [4], 467 nM in assay [1], 348 nM in assay [5] and 391 nM in assay [6].
Regarding `C=CC(=O)Nc1cccc(NC(=O)Nc2ccnc(Nc3ccc(OCCOC)cc3)n2)c1`, the IC50 was 266 nM in assay [4] and above 1000 nM in assay [5].
With `C=CC(=O)Nc1cccc(NC(=O)Nc2ccnc(Nc3ccc(N4CCC(N(CC)CC)CC4)cc3OC)n2)c1`, the IC50 was found to be 31 nM in assay [1] and 2010 nM in assay [2].
Consider `C=CC(=O)NC1CCCN(C(=O)Nc2ccnc(Nc3ccc(N4CCN(C)CC4)cc3OC)n2)C1` (centres undefined), for which the half-inhibitory concentration (IC50) in assay [4] and in assay [5] was above 1000 nM each time.
Turning to `C=CC(=O)Nc1cccc(NC(=O)Nc2ccnc(Nc3ccc(N4CCN(C)CC4)cc3OC)n2)c1`, the IC50 worked out at 17 nM in assay [4], 525 nM in assay [1], 17 nM in assay [5] and 906 nM in assay [6].
In the case of `C=CC(=O)Nc1cccc(NC(=O)Nc2ccnc(Nc3ccc(C(=O)N4CCOCC4)cc3OC)n2)c1`, the IC50 was 128 nM in assay [4] and above 1000 nM in assay [5].
For the molecule `C=CC(=O)Nc1cccc(NC(=O)Nc2ccnc(Nc3ccc(N(CC)CC)cc3OC)n2)c1`, the IC50 in assay [3] is above 10000 nM; in assay [4], 12 nM; in assay [1], 86 nM; in assay [5], 183 nM; in assay [2] it was above 10000 nM; in assay [6], 112 nM.
Turning to `C=CC(=O)Nc1cccc(NC(=O)C2(C(=O)Nc3ccnc(Nc4ccc(N5CCN(C)CC5)cc4OC)n3)CC2)c1`, the IC50 in assay [4] and in assay [5] was above 1000 nM each time.
Regarding `C=CC(=O)Nc1cc(Nc2nccc(-c3cn(C)c4ccccc34)n2)c(OC)cc1N(C)CCN(C)C` [OSIMERTINIB], the IC50 came to […] in assay [1] and […] in assay [2].
